Like-named read-outs stand apart in the source and are kept apart here.
Experiments:
[1] = system: MCF7 (breast) cancer cell line; test: 2D-monolayer antiproliferation (MTT) against MCF7; type: cell-based, human; settings: for IC50: Homo sapiens, MTT, 72 h incubation, MCF7 breast, read-out: IC50, μM ± SEM MCF7; for SI (selectivity index) MCF7: IC50 of RPE1 normal cell/IC50 of MCF7
[2] = system: HCT116 (colon) cancer cell line; test: 2D-monolayer antiproliferation (MTT) against HCT116; type: cell-based, human; settings: for IC50: Homo sapiens, HCT-116; for SI (selectivity index) HCT116: IC50 of RPE1 normal cell/IC50 of HCT116
[3] = system: TNF-α; test: TNF-α inhibitory properties (ELISA), HCT116 cell lysate; type: cell-based, human; settings: at 10 μM; for TNF-α pg/mL (± SEM) HCT116: control 95.74 ± 0.5
[4] = system: PaCa2 (pancreatic) cancer cell line; test: 2D-monolayer antiproliferation (MTT) against PaCa2; type: cell-based, human; settings: for 1/(observed property): 1/observed IC50 (μM), PaCa2; for IC50: Homo sapiens, PaCa-2, MTT, 72 h incubation, PaCa2 pancreatic, read-out: IC50, μM ± SEM PaCa2; for SI (selectivity index) PaCa2: IC50 of RPE1 normal cell/IC50 of PaCa2
[5] = target: T1, VEGFR-2 (Homo sapiens, UniProt P35968); test: cell-based; type: cell-based; settings: for inhibition at 10 µM: HCT-116, HCT116; for VEGFR-2 pg/mL ± SEM HCT116: at 10 μM, control 317.80 ± 3.5
T1 construct: endogenous in cells; host or cells: HCT116, PaCa2, MCF7 (human cancer cell lines, ATCC origin)

[6] = target: T2, COX-2 (Homo sapiens, UniProt P35354); test: biochemical; settings: for inhibition at 10 µM: 3 replicates, read-out: % Inhibition of COX-2 ± SEM; for SI (selectivity index, COX-2/COX-1): at 10 μM
T2 construct: purchased BioVision incorporated USA K548–100
T2 sequence (P35354 18-604): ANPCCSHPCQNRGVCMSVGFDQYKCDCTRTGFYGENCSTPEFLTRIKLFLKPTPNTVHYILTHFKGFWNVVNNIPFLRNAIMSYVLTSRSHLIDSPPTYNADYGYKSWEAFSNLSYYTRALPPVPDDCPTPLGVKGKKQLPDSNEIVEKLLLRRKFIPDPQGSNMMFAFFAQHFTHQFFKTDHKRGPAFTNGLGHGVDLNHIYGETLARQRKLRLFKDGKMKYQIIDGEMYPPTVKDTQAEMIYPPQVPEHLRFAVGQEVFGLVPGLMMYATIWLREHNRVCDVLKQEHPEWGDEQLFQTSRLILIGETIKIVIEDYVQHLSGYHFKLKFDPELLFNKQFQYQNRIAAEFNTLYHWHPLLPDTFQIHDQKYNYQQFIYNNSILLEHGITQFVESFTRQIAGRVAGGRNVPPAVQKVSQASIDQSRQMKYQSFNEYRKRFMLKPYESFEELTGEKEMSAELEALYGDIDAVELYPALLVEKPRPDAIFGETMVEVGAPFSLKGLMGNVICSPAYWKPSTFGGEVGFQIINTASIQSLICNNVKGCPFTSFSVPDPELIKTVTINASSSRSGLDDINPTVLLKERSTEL

[7] = target: T3, COX-1 (Ovis aries, UniProt P05979); test: biochemical; settings: 3 replicates, read-out: % Inhibition of COX-1 ± SEM
T3 construct: purchased BioVision incorporated USA K548–100
T3 sequence (P05979 25-600): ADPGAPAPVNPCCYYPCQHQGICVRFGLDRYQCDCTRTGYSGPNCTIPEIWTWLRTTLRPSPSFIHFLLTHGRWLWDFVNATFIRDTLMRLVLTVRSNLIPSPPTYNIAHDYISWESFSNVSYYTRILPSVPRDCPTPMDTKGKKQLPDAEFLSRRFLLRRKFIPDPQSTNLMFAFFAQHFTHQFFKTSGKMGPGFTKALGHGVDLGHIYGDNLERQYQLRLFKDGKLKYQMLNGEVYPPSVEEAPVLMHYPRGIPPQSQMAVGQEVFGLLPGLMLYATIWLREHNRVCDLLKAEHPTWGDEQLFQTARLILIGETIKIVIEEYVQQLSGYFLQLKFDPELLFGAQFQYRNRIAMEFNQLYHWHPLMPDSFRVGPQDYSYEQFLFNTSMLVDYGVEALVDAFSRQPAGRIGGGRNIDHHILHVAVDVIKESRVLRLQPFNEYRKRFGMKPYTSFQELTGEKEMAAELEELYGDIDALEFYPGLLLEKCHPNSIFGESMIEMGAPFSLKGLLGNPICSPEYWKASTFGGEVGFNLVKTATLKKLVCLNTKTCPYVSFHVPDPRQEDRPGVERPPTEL

[8] = system: TNF-α; test: TNF-α inhibitory properties (ELISA), PaCa2 cell lysate; type: cell-based, human; settings: at 10 μM; for TNF-α pg/mL (± SEM) PaCa2: control 111.8 ± 2.0
[9] = target: T1, VEGFR-2; test: cell-based; type: cell-based; settings: for inhibition at 10 µM: PaCa-2, PaCa2; for VEGFR-2 pg/mL ± SEM PaCa2: at 10 μM, control 326.80 ± 1.9
[10] = system: A549 (lung) cancer cell line; test: 2D-monolayer antiproliferation (MTT) against A549; type: cell-based, human; settings: for IC50: Homo sapiens, MTT, 72 h incubation, A549 lung, read-out: IC50, μM ± SEM A549; for SI (selectivity index) A549: IC50 of RPE1 normal cell/IC50 of A549
[11] = system: RPE1 (normal human immortalized retinal pigment epithelial cell line); test: cells; type: cell-based; settings: for IC50: Homo sapiens, RPE-1, MTT, normal RPE1 cell, read-out: IC50, μM ± SEM RPE1
[12] = target: T1, VEGFR-2; test: cell-based; type: cell-based; settings: for inhibition at 10 µM: MCF7; for VEGFR-2 pg/mL ± SEM MCF7: at 10 μM, control 258.70 ± 2.3
[13] = system: TNF-α; test: TNF-α inhibitory properties (ELISA), MCF7 cell lysate; type: cell-based, human; settings: at 10 μM; for TNF-α pg/mL (± SEM) MCF7: control 83.26 ± 1.1
[14] = MTT, 72 h incubation, HCT116 colon, read-out: IC50, μM ± SEM HCT116
[15] = log of observed IC50 (μM), HCT116, read-out: Log(observed property) (converted)

T1 sequence (P35968 20-1356): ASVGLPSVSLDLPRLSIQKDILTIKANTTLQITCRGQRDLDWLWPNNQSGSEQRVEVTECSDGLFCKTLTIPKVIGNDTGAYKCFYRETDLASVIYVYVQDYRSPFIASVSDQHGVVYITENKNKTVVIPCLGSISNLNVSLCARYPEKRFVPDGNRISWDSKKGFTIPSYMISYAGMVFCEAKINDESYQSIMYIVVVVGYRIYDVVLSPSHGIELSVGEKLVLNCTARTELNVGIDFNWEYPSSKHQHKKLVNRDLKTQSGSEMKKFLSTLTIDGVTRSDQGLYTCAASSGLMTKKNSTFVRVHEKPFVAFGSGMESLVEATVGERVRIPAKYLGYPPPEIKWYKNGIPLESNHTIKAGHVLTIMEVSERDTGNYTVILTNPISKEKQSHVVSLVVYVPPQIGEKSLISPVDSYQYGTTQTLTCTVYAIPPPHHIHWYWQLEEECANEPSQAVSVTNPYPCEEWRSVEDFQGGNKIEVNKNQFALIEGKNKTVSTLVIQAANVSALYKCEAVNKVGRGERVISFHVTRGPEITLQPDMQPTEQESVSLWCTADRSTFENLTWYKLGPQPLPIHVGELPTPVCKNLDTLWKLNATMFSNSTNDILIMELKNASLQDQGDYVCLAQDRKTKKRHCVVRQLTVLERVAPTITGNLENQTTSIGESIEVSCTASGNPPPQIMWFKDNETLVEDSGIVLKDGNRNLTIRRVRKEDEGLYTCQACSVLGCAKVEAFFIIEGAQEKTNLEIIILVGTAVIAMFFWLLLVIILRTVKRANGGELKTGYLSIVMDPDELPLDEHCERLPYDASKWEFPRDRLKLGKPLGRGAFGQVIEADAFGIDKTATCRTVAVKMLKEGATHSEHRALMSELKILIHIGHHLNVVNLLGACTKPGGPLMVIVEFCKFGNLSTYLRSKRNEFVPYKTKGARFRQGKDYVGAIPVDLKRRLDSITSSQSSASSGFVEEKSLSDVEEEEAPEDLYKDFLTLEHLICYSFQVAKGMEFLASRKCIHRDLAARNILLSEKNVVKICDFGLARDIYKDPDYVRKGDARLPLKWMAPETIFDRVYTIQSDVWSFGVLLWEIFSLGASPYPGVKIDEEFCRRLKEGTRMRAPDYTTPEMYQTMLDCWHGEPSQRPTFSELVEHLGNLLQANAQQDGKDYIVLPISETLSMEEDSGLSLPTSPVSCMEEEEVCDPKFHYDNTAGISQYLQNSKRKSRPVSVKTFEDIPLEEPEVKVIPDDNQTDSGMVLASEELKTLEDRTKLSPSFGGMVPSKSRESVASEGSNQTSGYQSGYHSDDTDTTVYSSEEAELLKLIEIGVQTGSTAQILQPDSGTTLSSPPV

Row | Compound | IC50 [1] [µM] | SI (selectivity index) MCF7 [1] | IC50 [2, 14] [µM] | IC50 [2, 15] [µM] | SI (selectivity index) HCT116 [2] | TNF-α % inhibition HCT116 [3] [%] | TNF-α pg/mL (± SEM) HCT116 [3] [pg/mL] | 1/(observed property) [4] | IC50 [4] [µM] | SI (selectivity index) PaCa2 [4] | inhibition at 10 µM [5] [%] | VEGFR-2 pg/mL ± SEM HCT116 [5] [pg/mL] | inhibition at 10 µM [6] [%] | inhibition at 10 µM [7] [%] | TNF-α % inhibition PaCa2 [8] [%] | TNF-α pg/mL (± SEM) PaCa2 [8] [pg/mL] | inhibition at 10 µM [9] [%] | VEGFR-2 pg/mL ± SEM PaCa2 [9] [pg/mL] | IC50 [10] [µM] | SI (selectivity index) A549 [10] | further results
1 | CCOP(=O)(OCC)N1C/C(=C\c2ccc(F)cc2)C(=O)C2(C1)C(c1ccc(F)cc1)CN(C)C21C(=O)Nc2ccccc21 (centres unmarked) [Compound 17e, Diethyl (E)-[5′′-(4-fluorobenzylidene)-4′-(4-fluorophenyl)-1′-methyl-2,4′′-dioxodispiro[indoline-3,2′-pyrrolidine-3′,3′′-piperidin]-1′′-yl]phosphonate] | 5.64 ± 0.273 | 2.9 | 6.99 ± 0.101 | 6.99 | 2.4 | 1.5 | 94.27 ± 0.7 | 0.1055 | 9.48 ± 0.278 | 1.8 | 66.2 | 107.50 ± 2.0 | 59.6 ± 1.3 | 55 ± 3.6 | 12.7 | 97.6 ± 1.6 | 61 | 127.43 ± 1.3 | 7.73 ± 0.155 | 2.1 | SI (selectivity index, COX-2/COX-1) [6]: 1.08; IC50 [11]: 16.6 ± 0.907 µM; inhibition at 10 µM [12]: 55%; VEGFR-2 pg/mL ± SEM MCF7 [12]: 116.50 ± 1.0 pg/mL; TNF-α % inhibition MCF7 [13]: 1.7%; TNF-α pg/mL (± SEM) MCF7 [13]: 81.87 ± 3.0 pg/mL
2 | CCOP(=O)(OCC)N1C/C(=C\c2ccc(F)cc2)C(=O)C2(C1)C(c1ccc(F)cc1)CN(C)C21C(=O)Nc2ccc(C)cc21 (centres unmarked) [Compound 17g, Diethyl (E)-(5′′-(4-fluorobenzylidene)-4′-(4-fluorophenyl)-1′,5-dimethyl-2,4′′-dioxodispiro[indoline-3,2′-pyrrolidine-3′,3′′-piperidin]-1′′-yl)phosphonate] | 5.43 ± 0.152 | 3.5 | 5.01 ± 0.364 | 5.01 | 3.8 | 14.6 | 81.75 ± 2.1 | 0.1641 | 6.09 ± 0.132 | 3.1 | 69 | 98.40 ± 1.2 | 51.8 ± 2.8 | 62.1 ± 3.1 | 12.9 | 97.4 ± 3.6 | 77.7 | 72.80 ± 0.9 | 8.15 ± 0.277 | 2.3 | IC50 [11]: 19 ± 0.647 µM; inhibition at 10 µM [12]: 75%; VEGFR-2 pg/mL ± SEM MCF7 [12]: 64.80 ± 0.5 pg/mL; TNF-α % inhibition MCF7 [13]: 0.3%; TNF-α pg/mL (± SEM) MCF7 [13]: 83.0 ± 3.2 pg/mL
3 | CCOP(=O)(OCC)N1C/C(=C\c2cccs2)C(=O)C2(C1)C(c1cccs1)CN(C)C21C(=O)Nc2ccccc21 (centres unmarked) [Compound 17q, Diethyl (E)-[1′-methyl-2,4′′-dioxo-4′-(thiophen-2-yl)-5′′-(thiophen-2-ylmethylene)dispiro[indoline-3,2′-pyrrolidine-3′,3′′-piperidin]-1′′-yl]phosphonate] | 9.13 ± 0.314 | 3.0 | 11.8 ± 0.4 | 11.8 | 2.3 | 12.0 | 84.26 ± 0.8 | 0.07485 | 13.4 ± 0.325 | 2.0 | 58.4 | 132.30 ± 0.9 | 62.1 ± 3.1 | 61.3 ± 1.5 | 17.9 | 91.8 ± 2.7 | 58.5 | 135.70 ± 1.7 | 24.51 ± 0.204 | 1.1 | SI (selectivity index, COX-2/COX-1) [6]: 0.93; IC50 [11]: 27.2 ± 0.813 µM; inhibition at 10 µM [12]: 43.7%; VEGFR-2 pg/mL ± SEM MCF7 [12]: 145.70 ± 1.9 pg/mL; TNF-α % inhibition MCF7 [13]: 3.1%; TNF-α pg/mL (± SEM) MCF7 [13]: 80.67 ± 2.8 pg/mL
4 | CCOP(=O)(OCC)N1C/C(=C\c2ccc(Cl)cc2)C(=O)C2(C1)C(c1ccc(Cl)cc1)CN(C)C21C(=O)Nc2ccc(Cl)cc21 (centres unmarked) [Compound 17j, Diethyl (E)-[5-chloro-5′′-(4-chlorobenzylidene)-4′-(4-chlorophenyl)-1′-methyl-2,4′′-dioxodispiro[indoline-3,2′-pyrrolidine-3′,3′′-piperidin]-1′′-yl]phosphonate] | 3.87 ± 0.102 | > 12.9 | 3.487 ± 0.033 | 3.49 | > 14.3 | 14.6 | 81.78 ± 1.4 | 0.1443 | 6.93 ± 0.337 | > 7.2 | 80.3 | 62.50 ± 0.7 | 53.5 ± 2.3 | 48.9 ± 1.5 | 11.9 | 98.5 ± 3.1 | 92.4 | 24.78 ± 0.3 | 6.06 ± 0.157 | > 8.3 | SI (selectivity index, COX-2/COX-1) [6]: 1.05; IC50 [11]: > 50 µM; selectivity index (SI) ([11]; IC50 against RPE1 compared to the tested cancer cell line(s), in words): high selectivity index; inhibition at 10 µM [12]: 82.7%; VEGFR-2 pg/mL ± SEM MCF7 [12]: 44.80 ± 0.6 pg/mL; TNF-α % inhibition MCF7 [13]: 0.5%; TNF-α pg/mL (± SEM) MCF7 [13]: 82.87 ± 4.5 pg/mL
